The record followed here is patent publication US20060069132A1, “Azolecarboxamide herbicides” (priority 2004, published 2006).

The subject of one test is large crabgrass (DIGSA). Description: Test J Compounds 2 and 6 alone and in combination with other herbicides, foliage spray. It counts as in vivo, Digitaria sanguinalis. More on the design: key: 0 = no effect, 100 = complete control. The conditions noted are these: applied alone. An excerpt: Colby's Equation was used to calculate the expected additive herbicidal effect of the mixtures of Compound 6 with Harmony® Extra (i.e. a 2:1 mixture by weight of thifensulfuron-methyl and tribenuron-methyl). […]
Seeds of test plants consisting of barnyardgrass (ECHCG; Echinochloa crus-galli (L.) Beauv.), blackgrass (ALOMY; Alopecurus myosuroides Huds.), Surinam grass (BRADC; Urochloa decumbens (Staph) R. D. Webster, previously named Brachiaria decumbens Stapf), cocklebur (XANST, Xanthium strumarium L.), corn (ZEAMD, Zea mays L. cv. ‘Pioneer 33G26’), large crabgrass (DIGSA, Digitaria sanguinalis (L.) Scop.), giant foxtail (SETFA, Setaria faberi Herrm.), lambsquarters (CHEAL, Chenopodium album L.), morningglory (IPOCO, Ipomoea coccinea L.), pigweed (AMARE, Amaranthus retroflexus L.), velvetleaf (ABUTH, Abutilon theophrasti Medik.) wheat (TRZAS, Triticum aestivum L. cv. ‘Recital’) and wild oat (AVEFA, Avena fatua L.) were planted in Redi-Earth® planting medium (Scotts Company, 14111 Scottslawn Road, Marysville, Ohio 43041) comprising spaghnum peat moss and vermiculite. […] Also listed in Table J are the expected effects for the mixtures calculated using Colby's Equation.

A further test deals with wheat cv. Recital. As to the kind of experiment: Test I safening of Compound 6 by Harmony Extra Herbicide, pre-/postemergence. It is filed as in vivo, Triticum aestivum. As to the method:
This test evaluated the safening of Compound 6 on barley (Hordeum vulgare L.) cv. ‘Boone’ and wheat (Triticum aestivum L.) cv. ‘Recital’ by Harmony® Extra Herbicide, which comprises 50 wt % thifensulfuron-methyl and 25 wt % tribenuron-methyl. Barley and wheat seeds were planted in pots containing a pasteurized blend of Matapeake soil and sand. For postemergence testing the plants were grown 10 days so the barley seedlings were at the 2-leaf stage and the wheat seedlings were at the 2-3-leaf stage at time of treatment. Preemergence treatments were applied the day after the seeds were planted. Treatments were applied by spraying Compound 6 and/or […] in a non-phytotoxic solvent mixture, using flat fan nozzle and a spray volume of 280 L/ha. The treatments were triply replicated and the results subsequently averaged. The pots were placed on a greenhouse bench using a complete randomized block design except for the first replicate, which was unrandomized. The plants were grown in the greenhouse and watered as needed with a dilute nutrient solution containing 200 ppm of N. Illumination was daylight supplemented by artificial sources to maintain a photoperiod of 14 hours. The temperature was maintained at 23±2° C. during the day and 17±2° C. at night. The effects of the treatments were rated 25 days after preemergence treatment and 15 days after postemergence treatment. The plant response was visually rated in comparison to untreated controls using a scale of 0 to 100, with 0 representing no effect and 100 representing complete plant death.
Colby's Equation was used to calculate the expected additive herbicidal effect of the mixtures of Compound 6 with Harmony® Extra (i.e. a 2:1 mixture by weight of thifensulfuron-methyl and tribenuron-methyl). Colby's Equation (Colby, S. R. “Calculating Synergistic and Antagonistic Responses of Herbicide Combinations,” Weeds, 15(1), pp 20-22 (1967)) calculates the expected additive effect of herbicidal mixtures, and for two active ingredients is of the form: Pa+b=Pa+Pb−(PaPb/100) wherein • Pa+b is the percentage effect of the mixture expected from additive contribution of the individual components, • Pa is the observed percentage effect of the first active ingredient at the same use rate as in the mixture, and • Pb is the observed percentage effect of the second active ingredient at the same use rate as in the mixture.
The results and additive effects expected from Colby's Equation for the preemergence test are listed in Table I1, and the results and additive effects expected from Colby's Equation for the postemergence test are listed in Table I2.

The test system of another test is wild mustard. As to the kind of experiment: Test F pre-/postemergence herbicide test. It counts as in vivo, Sinapis arvensis. An excerpt:
(§1) Seeds of plant species selected from annual blugrass (Poa annua L.), blackgrass (Alopecurus myosuroides Huds.), catchweed bedstraw (Gallium aparine L.), common chickweed (Stellaria media (L.) Vill./Cyr.), downy bromegrass (Bromus tectorum L.), green foxtail (Setaria viridis (L.) Beauv.), Italian ryegrass (Lolium multiflorum Lam.), kochia (Kochia scoparia (L.). Schrad.), lambsquarters (Chenopodium album L.), littleseed canarygrass (Phalaris minor Retz.), pigweed (Amaranthus retroflexus L.), Russian thistle (Salsola kali L. ssp. Ruthenica (Iljin) Soo), wild buckwheat (Polygonum convolvulus L.), wild mustard (Sinapis arvensis L.), wild oat (Avena fatua L.), windgrass (Apera spica-venti (L.) Beauv.), winter barley (Hordeum vulgare L.), and wheat (Triticum aestivum L.) were planted and treated preemergence with test chemicals formulated in a non-phytotoxic solvent mixture which included a surfactant.
(§2) At the same time, plants selected from these crop and weed species were treated with postemergence applications of some of the test chemicals formulated in the same manner. Plants ranged in height from 2 to 18 cm (1- to 4-leaf stage) for postemergence treatments. Treated plants and controls were maintained in a greenhouse for 12 to 14 days, after which time all species were compared to controls and visually evaluated. Plant response ratings, summarized in Table F, are based on a scale of 0 to 100 where 0 is no effect and 100 is complete control. A dash (-) response means no test result.

The next test concerns wild oat. Description: Test F pre-/postemergence herbicide test. It counts as in vivo, Avena fatua.
Text: as §1, §2

As for `CCn1nc(C(C)(C)C)cc1C(=O)Nc1cc(C(=O)N(C)C)ccc1F` [Compound 6, N-[5-[(dimethylamino)carbonyl]-2-fluorophenyl]-3-(1,1-dimethylethyl)-1-ethyl-1H-pyrazole-5-carboxamide], the “DIGSA Obsd.” value in the test with large crabgrass (DIGSA) (62 g a.i./ha) amounted to 8; in the test on large crabgrass (DIGSA) (125 g a.i./ha) it was 13. The “Wheat Observed effect” value came out at 58 in the test with wheat cv. Recital (postemergence, Compound 6 16, thifensulfuron-methyl 0, tribenuron-methyl 0 g a.i./ha); 65 in the test with wheat cv. Recital (postemergence, Compound 6 31, thifensulfuron-methyl 0, tribenuron-methyl 0 g a.i./ha); 45 in the test with wheat cv. Recital (preemergence, Compound 6 16, thifensulfuron-methyl 0, tribenuron-methyl 0 g a.i./ha); 67 in the test on wheat cv. Recital (preemergence, Compound 6 31, thifensulfuron-methyl 0, tribenuron-methyl 0 g a.i./ha).

As for `CCn1nc(C(C)(C)C)cc1C(=O)Nc1cc(C(=O)OC(C)C)c(F)cc1F` [Compound 248], the “Plant response rating (0-100), Mustard, Wild” value is 30 in the test with wild mustard (Postemergence, 31 g ai/ha); 40 with wild mustard (Postemergence, 62 g ai/ha); 60 in the test on wild mustard (Postemergence, 125 g ai/ha); 60 with wild mustard (Postemergence, 250 g ai/ha); 40 in the test with wild mustard (Preemergence, 31 g ai/ha); 50 in the test with wild mustard (Preemergence, 62 g ai/ha). The “Plant response rating (0-100), Mustard, Wild” value with wild mustard (Preemergence, 125 g ai/ha) amounted to 50; with wild mustard (Preemergence, 250 g ai/ha), 50. Also, the “Plant response rating (0-100), Oat, Wild” value in the test on wild oat (Postemergence, 31 g ai/ha) is 45; in the test with wild oat (Postemergence, 62 g ai/ha), 45; in the test on wild oat (Postemergence, 125 g ai/ha), 60; in the test with wild oat (Postemergence, 250 g ai/ha), 65; in the test on wild oat (Preemergence, 31 g ai/ha), 40; in the test with wild oat (Preemergence, 62 g ai/ha) it was 45. For the same compound, the “Plant response rating (0-100), Oat, Wild” value was determined as 50 in the test on wild oat (Preemergence, 125 g ai/ha) and 65 in the test with wild oat (Preemergence, 250 g ai/ha).
